From article PMC5976665, “Identification of a peptide for folate receptor alpha by phage display and its tumor targeting activity in ovary cancer xenograft” (Scientific Reports, 2018)
Residues, ends and D or L forms follow the SMILES beside them. No end group written: not given here. *: point of attachment. FITC = O=C1OC2(c3ccc(O)cc3Oc3cc(O)ccc32)c2ccc(NC(=S)*)cc21

Assays:
HepG2 cells = assay: Cell-based ELISA of phage clones on HepG2 cells; set-up: species or system human; conditions: FRα negative cells, fixed; 10^10 phages per well, 37 °C 2 h, HRP anti-M13
From the text: (§1) Phage clones with high ELISA value were further tested by cell-based ELISA. SKOV3 (human epithelial ovarian cancer cell) is a FRα expressing cell line and was used to evaluate the binding of selected phage clones to natural FRα protein on cell surface. HEPG2 (Human Liver Carcinoma Cell) without FRα expressing was used as a negative control. Both cell lines were purchased from Shanghai Cell Biology Institutes (Academia Sinica, Shanghai, China) and maintained in RPMI 1640 Medium with 10% fetal bovine serum and antibiotics. The presence or absence of FRα expression of the two cell lines were confirmed by flow cytometry described in 2.4. The cells were cultured in 96-well plate to 80% confluence and fixed with 4% paraformaldehyde. After blocking with 3% BSA for 2 h, 10^10 individual phages were added to each well and incubated at 37 °C for 2 h. Then the plate was washed with PBST for three times and cell-bound phage was detected with HRP-conjugated anti-M13 IgG (1:10000) as described in phage ELISA.

SKOV3 cells [1] = assay: Cell-based ELISA of phage clones on SKOV3 cells; set-up: species or system human; conditions: FRα positive cells, fixed; 10^10 phages per well, 37 °C 2 h, HRP anti-M13
From the text: as §1

SKOV3 cells [2] = assay: Flow cytometry of phage clone binding to SKOV3 cells; type: cell-based, human; conditions: 4 °C 1 h, mouse anti-M13 and FITC goat anti-mouse antibody
Procedure: SKOV3 cells were collected and suspended in 2% FCS-PBS medium at 1 × 10^6 cells/mL. Purified phage clones were incubated individually with the cells at 4 °C for 1 h. The cells were washed twice with 2% FCS-PBS by 5 min centrifugation at 300 g. Mouse anti-M13 antibody was diluted with 2% FCS-PBS (1:400) and incubated with cells for 30 min at 4 °C. After washing, the cells were stained for 30 min at 4 °C with FITC conjugated goat anti-mouse antibody (Fcmacs, Inc., Nanjing). Cells were analyzed as described above.

SKOV3 cells [3] = assay: Cell internalization by confocal microscopy, SKOV3 cells; type: cell-based, human; conditions: FITC conjugated peptide 200 μg/mL, 4 hours at 37 °C
Procedure: To visualize internalization of synthesized peptide C7 into cells, SKOV3 or HepG2 cells were seeded in 24 well plates (10^5 cells/well) containing coverslips and incubated for 24 hours in RPMI 1640 medium with 10% FBS. FITC conjugated peptide C7 or PB-TUP[24] (VHWDFRQWWQPS) (200 μg/mL) was incubated with the cells for 4 hours at 37 °C. After incubation, the cells were washed once with PBS and fixed in 4% paraformaldehyde for 10 min. Cells were then washed three times with PBS and stained with DAPI for 20 min at room temperature. Internalized fluorescent signals were imaged with a Zeiss LSM800 confocal microscope.

SKOV3 xenograft tumor = assay: Tumor targeting of FITC conjugated synthetic peptide by fluorescence imaging; type: in vivo, nude mouse; conditions: 200 μL of 10 mg/mL in PBS i.v., 2 h circulation, liver, lung, kidney, heart, ovary
Procedure: FITC conjugated peptide C7 was chemically synthesized by GL Biochem (Shanghai, China) and purified by high-performance liquid chromatography with more than 95% purity and confirmed by mass spectrometry. The FITC conjugated peptide was evaluated in tumor bearing mice for its tumor targeting capability. The peptide was dissolved in PBS at a concentration of 10 mg/mL and 200 μL was injected intravenously into a tumor bearing nude mouse. After 2 h circulation, tumor and other organ tissues (liver, lung, kidney, heart, and ovary) were harvested and analyzed using Carestream IS4000 fluorescence imaging system.

SKOV3 implanted tumor = assay: In vivo homing of phage clones in SKOV3 xenografts; set-up: species or system Balb/c nude mice; conditions: 2 × 10^11 phages i.v., circulated 15 min, phage titration per gram of tissue, n = 3
Procedure: Female Balb/c nude mice aged 6–8 weeks were purchased from the Yangzhou University Animal Center. All the animal studies were performed in compliance with the National Institutes of Health Guide for the Care and Use of Laboratory Animals and approved by IACUC (Institutional Animal Care and Use Committee of China Pharmaceutical University). The authors confirm that experiments involving laboratory animals adhered to the ethical standards of National Institutes of Health Guide and China Pharmaceutical University. The laboratory animals were used under the experimental animal production license 2121922. All animals were housed in a controlled environment (25 °C; 12 h light-dark cycle), with water and food provided freely. 2 × 10^6 SKOV3 cells were subcutaneously injected into the left flank of mice to generate epithelial ovarian cancer xenografts. 2 × 10^11 individual purified phage clones were injected intravenously and circulated for 15 min. After anesthetized with 10 mg/kg […] (5% w/v), the mice were perfused through the heart. Then, the tumor and main organs (liver, lung, kidney, heart and ovary) were harvested, weighed and homogenated. The homogenated tissues were washed, and lysed with 1% NP40. Bound phages were recovered by elution and titrated as described. The distribution of phages was calculated as phages per gram.

[4] = biological target: T1, Recombinant human folate receptor alpha (FRα) (human, UniProt P15328 25-234); assay: MST; serial dilutions of FITC conjugated C7 in PBS pH 7.4 mixed with purified FRα protein (1 μg/mL), 5 min at room temperature; Monolith NT.115, standard capillaries; KD from the Hill formula; conditions: both partners purified
T1 construct: folate receptor alpha, human; also called recombinant folate receptor α; purified FRα protein; source: E. coli system, purified with a Ni-column
T1 sequence (P15328 25-234): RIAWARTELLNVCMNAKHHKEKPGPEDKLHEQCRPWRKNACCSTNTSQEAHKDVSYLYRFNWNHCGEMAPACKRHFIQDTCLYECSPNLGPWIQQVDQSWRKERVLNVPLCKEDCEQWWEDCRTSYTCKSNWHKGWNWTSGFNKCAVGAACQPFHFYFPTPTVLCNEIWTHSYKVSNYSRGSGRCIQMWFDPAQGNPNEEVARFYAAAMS

[5] = biological target: T2, Native human folate receptor alpha (FRα) on SKOV3 cells (human (endogenous in SKOV3), UniProt P15328 25-234); assay: flow cytometry on cells; purified phage clones incubated with SKOV3 cells (1 × 10^6 cells/mL, 2% FCS-PBS) at 4 °C for 1 h; mouse anti-M13 antibody and FITC goat anti-mouse antibody; M13KE as negative control; conditions: one partner purified
T2 construct: folate receptor alpha, endogenous on the surface of SKOV3 human epithelial ovarian cancer cells; also called natural FRα protein on cell surface; source: endogenous, on SKOV3 cells
T2 sequence (P15328 25-234): as above

Molecule | binding to HepG2 cells in cell-based ELISA (HepG2 cells) | binding to SKOV3 cells in cell-based ELISA (SKOV3 cells [1]) | specific binding to SKOV3 cells (FITC+ cells) (SKOV3 cells [2]) | percent specific binding to SKOV3 cells [5] | further results
YTNPYYSSHTRN [phage clone G8, phage clone displaying Tyr-Thr-Asn-Pro-Tyr-Tyr-Ser-Ser-His-Thr-Arg-Asn] | relatively low binding | highest binding | 36.0% | – | –
GALLPSMNKGHW [phage clone B8, phage clone displaying Gly-Ala-Leu-Leu-Pro-Ser-Met-Asn-Lys-Gly-His-Trp] | relatively low binding | highest binding | – | – | –
CSCC[C@H](NC(=S)Nc1ccc2c(c1)C(=O)OC21c2ccc(O)cc2Oc2cc(O)ccc21)C(=O)N[C@@H](Cc1c[nH]cn1)C(=O)N[C@H](C(=O)N[C@@H](C)C(=O)N1CCC[C@H]1C(=O)NCC(=O)N[C@@H](Cc1c[nH]c2ccccc12)C(=O)NCC(=O)N[C@@H](Cc1ccc(O)cc1)C(=O)N[C@@H](CCCNC(=N)N)C(=O)N[C@@H](CC(C)C)C(=O)N[C@@H](CO)C(=O)O)[C@@H](C)O [C7, Met-His-Thr-Ala-Pro-Gly-Trp-Gly-Tyr-Arg-Leu-Ser] ({FITC}-MHTAPGWGYRLS-OH; N-terminus and C-terminus assumed) | – | – | – | – | internalization into SKOV3 cells (SKOV3 cells [3]): can be internalized; fluorescence signal in the tumor compared with other organs (SKOV3 xenograft tumor): significantly stronger compared to that in other organs except liver and kidney
MHTAPGWGYRLS [phage clone C7, phage clone from Ph.D.-12 library displaying the C7 dodecapeptide] | relatively low binding | highest binding | 51.2% | – | phage enrichment in tumor tissue relative to M13KE phage in tumor (SKOV3 implanted tumor): 49 fold; phage titer in tumor relative to normal ovary (SKOV3 implanted tumor): 190 fold
MNPYPRTPWPHV [phage clone G12, phage clone displaying Met-Asn-Pro-Tyr-Pro-Arg-Thr-Pro-Trp-Pro-His-Val] | relatively low binding | highest binding | 41.8% | – | –
{FITC}-MHTAPGWGYRLS (dodecapeptide of phage clone C7, chemically synthesized; printed in three-letter code; also called C7 peptide; synthesized peptide C7; source: synthetic peptide (GL Biochem, Shanghai; HPLC, more than 95% purity)) [FITC conjugated peptide C7] | – | – | – | – | Kd [4]: 300 nM
MHTAPGWGYRLS (dodecapeptide selected by phage display; printed in three-letter code; the synthetic FITC peptide is m18; also called C7 phage clone; source: M13 phage clone from the Ph.D.-12 library, amplified in E. coli ER2738; purified phage for flow cytometry) [Phage clone C7] | – | – | – | 51.2% | –
GALLPSMNKGHW (dodecapeptide selected by phage display; printed in three-letter code; source: M13 phage clone from the Ph.D.-12 library, amplified in E. coli ER2738; purified phage for flow cytometry) [Phage clone B8/H1/G4] | – | – | – | 31.8% | –
YTNPYYSSHTRN (dodecapeptide selected by phage display; printed in three-letter code; source: M13 phage clone from the Ph.D.-12 library, amplified in E. coli ER2738; purified phage for flow cytometry) [Phage clone G8] | – | – | – | 36% | –
MNPYPRTPWPHV (dodecapeptide selected by phage display; printed in three-letter code; source: M13 phage clone from the Ph.D.-12 library, amplified in E. coli ER2738; purified phage for flow cytometry) [Phage clone G12] | – | – | – | 41.8% | –
